For this assay, the system named is TCR and CD8 on F5 T cells. Kind of assay: Micropipette adhesion frequency assay, F5 T cells vs pMHC-coated RBCs. Type of assay: binding, mouse. Conditions: 32 NP68:H-2D^b/μm^2, BAPTA-AM 50 μM, PD98059 50 μM.

Structures are written as SMILES.

With `CC(=O)OCOC(=O)CN(CC(=O)OCOC(C)=O)c1ccccc1OCCOc1ccccc1N(CC(=O)OCOC(C)=O)CC(=O)OCOC(C)=O` [BAPTA-AM], the “effect on two-stage kinetics / upregulated adhesion” value was “two-stage kinetics were unaffected”.

For the origin of these results see article PMC3381515 (Immunity, 2011).
